This is an account of results in PubChem BioAssay AID2060336 (Molecular Pharmacology Branch, DTP, NCI, 2025).

Each structure is given as a SMILES string. Values joined by “and” are separate entries in the source; they are usually repeats but may differ in a detail not shown here. Equal entries are not always repeated. Bounds are passed on as bounds.

For this assay, the system named is 958767-090-R-J1-PDC spheroid growth. Put plainly: Anticancer human tumor 958767-090-R-J1-PDC patient-derived head and neck squamous carcinoma cell line growth inhibition [IpAb]. As to conditions: spheroids with HUVEC and MSC; for viability, T/C: stronger effect = lower value. The essentials:
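Multi-cell spheroids of 60% tumour cells, 25% HUVEC and 15% MSC in ultra-low-attachment U-bottom wells, treated with agents combined with ipatasertib or abemaciclib. Half-log ranges top out near clinical Cmax, or 10 microM when Cmax is unknown.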

Setting [1] is: curve of first compound, second compound 0.01 µM.
Setting [2] is: curve of first compound, second compound 0.0316 µM.
[3] abbreviates: curve of first compound, second compound 0.1 µM.
The mark [4] stands for this setting: curve of first compound, second compound 0.316 µM.
The mark [5] stands for this setting: curve of first compound, second compound 1 µM.
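Also: spheroids exposed to agents for 7 days.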
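For viability, T/C in this document: 100% = DMSO vehicle control wells.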

In general, IC50 refers to the concentration needed to halve the response being measured. For orientation: viability, T/C means the result in the treated group divided by that in the control group, in per cent. Consider `CCCS(=O)(=O)Nc1ccc(F)c(C(=O)c2c[nH]c3ncc(-c4ccc(Cl)cc4)cc23)c1F` + CCN1CCN(Cc2ccc(Nc3ncc(F)c(-c4cc(F)c5nc(C)n(C(C)C)c5c4)n3)nc2)CC1, for which the IC50 runs as follows: under setting [1], over 10000 nM; under setting [2], 9200 nM; under setting [3], 8260 nM; under setting [4], over 10000 nM; under setting [5], over 10000 nM. Besides, the viability, T/C runs as follows: (second compound 0.01 µM, first compound 0.0316 µM) 93.1%; (second compound 0.01 µM, first compound 0.1 µM) 93.6%; (second compound 0.01 µM, first compound 0.316 µM) 91.4%; (second compound 0.01 µM, first compound 1 µM) 93.7%; (second compound 0.01 µM, first compound 3.16 µM) 87.7%; (second compound 0.01 µM, first compound 10 µM) 60.2%. Also, the viability, T/C is, setting by setting: (second compound 0.0316 µM, first compound 0.0316 µM) 88.5%; (second compound 0.0316 µM, first compound 0.1 µM) 93.2%; (second compound 0.0316 µM, first compound 0.316 µM) 92.1%; (second compound 0.0316 µM, first compound 1 µM) 73.6%; (second compound 0.0316 µM, first compound 3.16 µM) 62%; (second compound 0.0316 µM, first compound 10 µM) 48.3%. For the same molecule, the viability, T/C runs as follows: (second compound 0.1 µM, first compound 0.0316 µM) 83.3%; (second compound 0.1 µM, first compound 0.1 µM) 82%; (second compound 0.1 µM, first compound 0.316 µM) 82.9%; (second compound 0.1 µM, first compound 1 µM) 70.8%; (second compound 0.1 µM, first compound 3.16 µM) 71.7%; (second compound 0.1 µM, first compound 10 µM) 45.6%. Further, the viability, T/C by setting is: (second compound 0.316 µM, first compound 0.0316 µM) 66.1%; (second compound 0.316 µM, first compound 0.1 µM) 54.8%; (second compound 0.316 µM, first compound 0.316 µM) 56.7%; (second compound 0.316 µM, first compound 1 µM) 67.8%; (second compound 0.316 µM, first compound 3.16 µM) 67.1%; (second compound 0.316 µM, first compound 10 µM) 44.4%. Moreover, the viability, T/C was 89.5% (second compound 1 µM, first compound 0.0316 µM); 78.6% (second compound 1 µM, first compound 0.1 µM); 74.9% (second compound 1 µM, first compound 0.316 µM); 79.5% (second compound 1 µM, first compound 1 µM); 69.5% (second compound 1 µM, first compound 3.16 µM); 51.9% (second compound 1 µM, first compound 10 µM).

`CC(C)(C)c1cnc(CSc2cnc(NC(=O)C3CCNCC3)s2)o1` + CCN1CCN(Cc2ccc(Nc3ncc(F)c(-c4cc(F)c5nc(C)n(C(C)C)c5c4)n3)nc2)CC1: the IC50 was determined as 144 nM under setting [1]; 134 nM under setting [2]; 93.6 nM under setting [3]; 42.9 nM under setting [4]; 48.1 nM under setting [5]. Further, the viability, T/C (second compound 0.01 µM, first compound 0.00949 µM) is 106%; the viability, T/C (second compound 0.01 µM, first compound 0.03 µM) was 97.6%; the viability, T/C (second compound 0.01 µM, first compound 0.0949 µM) is 76.5%; the viability, T/C (second compound 0.01 µM, first compound 0.3 µM) was 2.6%; the viability, T/C (second compound 0.01 µM, first compound 0.949 µM) is 2.82%; the viability, T/C (second compound 0.01 µM, first compound 3 µM) was 2.81%. The viability, T/C reads like this: (second compound 0.0316 µM, first compound 0.00949 µM) 98.5%; (second compound 0.0316 µM, first compound 0.03 µM) 84.2%; (second compound 0.0316 µM, first compound 0.0949 µM) 70.5%; (second compound 0.0316 µM, first compound 0.3 µM) 1.81%; (second compound 0.0316 µM, first compound 0.949 µM) 2.35%; (second compound 0.0316 µM, first compound 3 µM) 1.86%. In addition, the viability, T/C was 76.2% (second compound 0.1 µM, first compound 0.00949 µM); 63.3% (second compound 0.1 µM, first compound 0.03 µM); 50.1% (second compound 0.1 µM, first compound 0.0949 µM); 2.58% (second compound 0.1 µM, first compound 0.3 µM); 1.95% (second compound 0.1 µM, first compound 0.949 µM); 2.75% (second compound 0.1 µM, first compound 3 µM). Besides, the viability, T/C (second compound 0.316 µM, first compound 0.00949 µM) is 71.2%; the viability, T/C (second compound 0.316 µM, first compound 0.03 µM) is 59.6%; the viability, T/C (second compound 0.316 µM, first compound 0.0949 µM) was 27.2%; the viability, T/C (second compound 0.316 µM, first compound 0.3 µM) is 1.79%; the viability, T/C (second compound 0.316 µM, first compound 0.949 µM) was 3.55%; the viability, T/C (second compound 0.316 µM, first compound 3 µM) is 3.21%. Further, the viability, T/C (second compound 1 µM, first compound 0.00949 µM) was 91.7%; the viability, T/C (second compound 1 µM, first compound 0.03 µM) was 78.2%; the viability, T/C (second compound 1 µM, first compound 0.0949 µM) is 9.34%; the viability, T/C (second compound 1 µM, first compound 0.3 µM) was 3.35%; the viability, T/C (second compound 1 µM, first compound 0.949 µM) is 3.92%; the viability, T/C (second compound 1 µM, first compound 3 µM) was 2.96%.

As to `CC(C)NCC(C(=O)N1CCN(c2ncnc3c2C(C)CC3O)CC1)c1ccc(Cl)cc1` (centres undefined), the viability, T/C (compound 0.1 µM) is 90.6% [middle of 13 runs] and the viability, T/C (compound 1 µM) was 50.7% [middle of 13 runs].

With `C=CCn1c(=O)c2cnc(Nc3ccc(N4CCN(C)CC4)cc3)nc2n1-c1cccc(C(C)(C)O)n1`, the viability, T/C runs as follows: (compound 0.0316 µM) 86.2% and 89.5%; (compound 0.1 µM) 72.7% and 72.8%; (compound 0.316 µM) 33.4% and 47.7%; (compound 1 µM) 27.7% and 37.4%; (compound 3.16 µM) 25% and 28.7%; (compound 10 µM) 21.1% and 20.1%. The half-maximal inhibitory concentration (IC50) (curve of compound) is 195 nM and 344 nM.
